Square brackets hold non-standard residues; d marks the D form. Peptide text beside a SMILES is read from it. * marks the point of attachment. Nle = CCCC[C@H](N)C(=O)O; Cbz = O=C(OCc1ccccc1)*
Assays:
Notch-1 = Notch-1 siRNA in CaSki cells, Notch-1 and Notch-4 Western blot; type: cell-based, human
Method: The human papilloma virus (HPV)-positive human cervical cancer cell line CaSki was obtained from ATCC (Rockville, Md.) and cultured in DMEM medium with 10% FBS. Double-stranded synthetic 21-mer RNA oligonucleotides (siRNAs) were purchased from Dharmacon (Lafayette, Colo.). […] Sequence specificity was determined by BLAST searches for the uniqueness. Transfection of CaSki human cervical cancer cells with siRNAs (200 nM siRNA oligos/60 mm dish) was performed by using Oligofectamine Transfection Reagents (InVitrogen) according to manufacturer's instructions.
At 24 and 48 hours after transfection with Notch-1 siRNA or scrambled control siRNA, the CaSki cells were assayed for Notch-1 and Notch-4 expression by Western blotting. Immunoblotting was performed using antibodies to Notch-1 (C-20), and Notch-4 (H-225) from Santa Cruz Biotechnology (Santa Cruz, Calif.). Secondary anti-goat, anti-mouse, anti-rabbit and anti-rat antibodies (IgG-HR1) were purchased from Vector Laboratories (Burlingame, Calif.), Santa Cruz Biotechnology and Amersham Biosciences. For Western blot analysis, equal amounts of protein extracted from each sample (30 μg) were loaded into pre-cast 7% NuPAGE Tris-acetate gels or 4-12% NuPAGE Bis-tris gels (Invitrogen). Proteins were separated by SDS-PAGE and transferred to polyvinylidene difluoride membranes (Bio-Rad, Hercules, Calif.) using Invitrogen's buffering system. […]

melanoma cell lines = assay: Apoptosis of melanoma cell lines treated with z-Leu-Leu-Nle-CHO (Annexin V FITC / propidium iodide flow cytometry); type: cell-based, human; details: each of nine melanoma cell lines; 10 μM for 24 h
Method: (§1) The effect of z-Leu-Leu-Nle-CHO on apoptosis was tested in vitro using normal human melanocytes and several melanoma cell cultures. Prior to testing, cutaneous (C8161, SK-MeI-28, SK-MeI-100, SK-MeI-5, C81-61), uveal or ocular (MUM2B, MUM2C, OCM-1A), and pulmonary metastases (RJ002L) melanoma cell lines were maintained in RPMI supplemented with 10% FBS. Normal human melanocytes were isolated from neonatal foreskins as previously described (Qin J et al., 2004, Mol Cancer Ther 3:895-902) and cultured with medium 154 containing growth supplements (Cascade Biologics, Portland, Oreg.).
(§2) To assess the effect of z-Leu-Leu-Nle-CHO on the cell lines, the cells were grown in suitable culture media. Highly proliferating cells (i.e., cells that had reached approximately 30% confluency) were exposed to z-Leu-Leu-Nle-CHO as described below. […]
(§3) Following treatment with z-Leu-Leu-Nle-CHO, the melanoma and melanocyte cell cultures were assayed for apoptotic cells using the APO TARGET Annexin V FITC staining kit (Biosource, Camarillo, Calif.) according to the manufacturer's instructions followed by flow cytometric analysis using FACScaliber (Becton Dickinson, Palo Alto, Calif.) as described in Qin, J. et al., 2001, Nat Med 7:385-386. In some cases, cell cycle and apoptosis analysis was measured using propidium iodide staining and flow cytometry as described. […]

normal human melanocytes = assay: Apoptosis and cell cycle of normal human melanocytes treated with z-Leu-Leu-Nle-CHO; type: cell-based
Method: as §1, §2, §3

[1] = test system: C8161 melanoma tumor xenograft; assay: C8161 melanoma tumor xenograft in Nude mice, z-Leu-Leu-Nle-CHO injections; type: in vivo
Method: Assessment of tumor formation in Nude mice was performed by adapting the method described in Hendrix, M. J. et al., 1997, Am J Pathol 150:483-495. Tumors were established in Nude mice as follows. Briefly, 1×10^6 aggressive melanoma cells (C8161) (ATCC, Rockville, Md.) were injected subcutaneously in Nude mice on day 0, and the tumors were allowed to grow for 1 week. Beginning on day 8, mice received injections (100 μl) of DMSO carrier only (control group) or z-Leu-Leu-Nle-CHO (1 mM in DMSO) (Calbiochem, LaJolla, Calif.) (experimental group) every other day for 1 week. Tumor sizes (mm^2) were determined on day 7 prior to injections with or z-Leu-Leu-Nle-CHO or DMSO, and on day 14. Average tumor size for both groups was normalized, and size of tumors at 2 weeks was averaged. Detection of apoptosis in tissue sections was performed using TUNEL staining as described in Wrone-Smith et al, 1997, Am J Pathol. 151:1321-9.

PC-3 prostate cells = assay: z-Leu-Leu-Nle-CHO on NOXA and apoptosis in PC-3 prostate cells; type: cell-based; details: 10 μM
NOXA = NOXA in whole cell protein extracts of subcutaneous C8161 tumors; type: in vivo, Nude mice; details: 2.5 mg/kg; versus PBS
Method: Initially, 1×10^6 aggressive melanoma cells (C8161) (ATCC, Rockville, Md.) were injected subcutaneously in Nude (nulnu) mice (6-7 weeks old; Harlan, Indianapolis, Ind.) on day 0, and the tumors were allowed bearing groups (5 mice/group) and injected with either (a) PBS as control; (b) bortezomib at 1.25 mg/kg; or (c) bortezomib at 2.5 mg/kg. Treatment began on day 8 when tumors were palpable and injected four times peri-tumorally. On day 20, mice were euthanized and tumors dissected from surrounding tissue and weighted. […] Expanding the in vitro studies to in vivo studies, subcutaneous tumors produced in Nude mice (as described above in Example 7) were tested to detect NOXA using whole cell protein extracts as described above.

5′-AAGTGTCTGAGGCCAGCAAGA-3′ [Notch-1 siRNA]
Notch-1 signaling (Notch-1; 200 nM siRNA, 24 and 48 hours after transfection): effective in genetically inhibiting Notch-1 signaling
Notch-4 levels (Notch-1; data not shown): did not effect levels of Notch-4

CCCC[C@@H](C=O)NC(=O)[C@H](CC(C)C)NC(=O)[C@H](CC(C)C)NC(=O)OCc1ccccc1 [z-Leu-Leu-Nle-CHO, N-benzyloxycarbonyl-leucyl-leucyl-norleucinal] (Cbz-Leu-Leu-[Nle]-aldehyde)
induction of apoptosis (melanoma cell lines): triggered a dose-dependent increase in apoptosis
cell cycle effect (normal human melanocytes; 10 μM for 24 h): induce a G2/M growth arrest
induction of apoptosis (normal human melanocytes; MC004, MC007, 1-10 μM for 18 h): did not significantly induce apoptosis
average tumor size ([1]; 1 mM in DMSO, 100 μl every other day for 1 week, compared to DMSO, p=0.046, n=11): significantly reduced tumor size
apoptosis in tumor by immunofluorescent TUNEL assay ([1]; 1 week of treatment, 1 mM, versus DMSO carrier): High levels of apoptosis
NOXA expression (PC-3 prostate cells; PC-3, p53 null): induced expression of NOXA
dead cells (PC-3 prostate cells; PC-3, after 24 hrs, data not shown): > 50%

CC(C)C[C@H](NC(=O)[C@H](Cc1ccccc1)NC(=O)c1cnccn1)B(O)O [bortezomib, N-(2-pyrazine)carbonyl-L-phenylalanine-L-leucine boronic acid]
NOXA in treated tumors (NOXA): did induce NOXA in these treated tumors
